Laboratory results: US20210283211A1, “COMPOSITIONS AND METHODS OF ALLEVIATING RESISTANCE TO CHEMOTHERAPY” (CITY OF HOPE, priority 2019, published 2021)
“Also recorded” adds a separate entry of the source.

Assays:
[1] = system: H358 cells; experiment: Cell-based rescreen of top virtual-screen hits, IC50 determination; conditions: Homo sapiens, NCI-H358, 0.1 μM to 10 μM, 72 hours
Procedure: Cell viability assay: Cell Counting Kit-8 (CCK-8) was purchased from Dojindo Molecular Technologies (Rockville, Md., USA). Cells were seeded on a 96-well plate and allowed to adhere in complete medium for 24 hours. Test compounds were added to 100 μl of medium at the indicated concentrations for 72 hours. Ten μl of the CCK-8 reagent were added to each well and absorbance at 450 nm was measured using a Tecan Spark 10M multimode microplate reader.
A virtual screen of a library of 1440 FDA-approved drugs using binding pockets in the N-terminal domain of PXN (FIG. 9H) identified several putative hits. The top 40 hits were then rescreened employing a cell-based assay to determine their efficacy using H358 cells.

[2] = system: H2009 cells; experiment: Scratch wound healing assay; format: cell-based, human
Procedure: Scratch wound healing assay. Cells were seeded on a 96-well Image Lock (Essen BioScience, Ann Arbor, Mich., USA) plate to reach 90% confluence by the next day. After cell adherence, 96 uniform wounds were created simultaneously using the WoundMaker (Essen BioScience) tool. Cells were washed once with serum-free medium and replenished with complete medium. To monitor wound healing, the plate was placed in the IncuCyte S3 Live-Cell Analysis System (Essen BioScience) and images were acquired every hour. Data analysis was generated by the IncuCyte software using a set confluence mask to measure relative wound density over time.
To discern the effect of knocking down ITGB4 on cell migration, H1993 and H2009 cells were transfected with the control or ITGB4-specific siRNA in 6-well plates and 12 hours post transfection, the cells were trypsinized and reseeded at high density in a 96-well plate. […] While both cell lines transfected with the control siRNA achieved 100% confluency of the wound within 48 hours, H1993 and 2009 cells in which ITGB4 was knocked down reached ˜60% and ˜80% confluency, respectively; neither cell line reached 100% confluency even after 96 h (FIG. 3F). Next the rate of wound closure was estimated. The rate was determined by dividing initial wound width by the time taken to close the wound. […] Similarly, in the case of the H2009 cells, the wound width closure rate dropped from 22 μm/h to about 18 μm/h (FIG. 3G). […] Additionally, up regulation of expression of other integrin β forms in response to ITGB4 knockdown was checked and an increase in the expression of ITGB1, ITGB2, and ITGB3 at mRNA level was found (FIG. 3I). The effect of ITGB3 silencing in the ITGB4 knocked down cells was further tested but no significant difference in their proliferation was found (FIG. 3J).

[3] = system: patient-derived organoids (lung cancer); experiment: Patient tumor tissue-derived organoid assay (area, caspase activity); format: cell-based, human
Procedure: Next, drug efficacy in patient tumor tissue-derived organoids was determined. Approximately 5000 cells/sample from 2 surgical samples were seeded in an ultra-low attachment plate and incubated at 37° C. […] In one of the patient-derived organoids, cisplatin treatment alone decreased spheroid area and increased apoptosis as measured by green intensity (FIG. 11D). […] Indeed, by 72 hours carfilzomib at a concentration of 2.5 μM induced 5-fold increase in caspase activity compared to cisplatin alone but there was not much change in the spheroid area (FIGS. 11E-11F). Thus, no additive effect was apparent in this patient sample. […] The efficacy of ITGB4 antibody in disrupting organoid growth and inducing apoptosis was also tested.

[4] = system: H2009 cells; experiment: IncuCyte cell proliferation and caspase-3/7 apoptosis assay; format: cell-based, human; conditions: 80 nM, 72 hours, among eleven compounds
Procedure: Cell proliferation and apoptosis assay. Cell proliferation assays were performed using cell lines stably transfected with NucLight Red Lentivirus (Essen Bioscience) to accurately visualize and count the nucleus of a single cell. Cells were seeded on a 96-well plate and allowed to adhere for 24 hours. Test compounds were added at indicated concentrations. Caspase-3/7 Green Apoptosis Reagent (Essen Bioscience) was also added as a green fluorescent indicator of caspase-3/7-mediated apoptotic activity. To monitor cell proliferation and apoptosis over time, the plate was placed in the IncuCyte S3 Live-Cell Analysis System (Essen BioScience) and images were acquired every 2 hours. Data analysis was generated by the IncuCyte software using a red fluorescence mask to accurately count each cell nucleus and a green fluorescence mask to measure apoptosis over time.
To determine whether the inhibition in cell proliferation associated with ITGB4 knockdown was due to enhanced apoptosis or reduced cell division (cytostatic), the Essen Bioscience Caspase-3/7 Green apoptosis assay in live cells was conducted. The NucView™[…], a DNA intercalating dye was used to enable quantification of apoptosis over time. The dye is impermeable and non-toxic to cells but once the cell membrane is permeabilized by caspase-3/7, the dye enters the cell and gets activated due to change in pH leading to the generation of green fluorescence that is then detected in real time and quantified using the IncuCyte System (FIG. 4B).
To address this, H1993 and H2009 cells were treated with cisplatin for 3 days and the changes were analyzed by immunoblotting. […] Next, H1993 and H2009 cells were transiently transfected with ITGB4 siRNA and 24 hours post-transfection they were treated with 10 μM cisplatin and cell proliferation and caspase activity were determined. […] However, in response to cisplatin in ITGB4 knockdown cells, the fold change dipped to <1, alluding to a cytotoxic effect (FIG. 4C). […] However, cell death was not due to caspase activation but appeared to be due to cell bursting which is seen in anoikis (FIGS. 3K and 3L).

SMILES: CC(C)C[C@H](NC(=O)[C@H](CCc1ccccc1)NC(=O)CN1CCOCC1)C(=O)N[C@@H](Cc1ccccc1)C(=O)N[C@@H](CC(C)C)C(=O)[C@@]1(C)CO1 [Carfilzomib]
- IC50 [1]: 0.8 nM
- wound confluency ([2]; 200 nM, untreated >90%): 79%
- cell migration / wound healing ([2]; sublethal dose (carfilzomib 50-200 nM)): significant inhibition of wound healing and reduction in wound closure rate; also recorded: dose-dependent inhibition of cell migration
- spheroid area ([3]; patient LCSC2): decreased the spheroid area
- caspase activity, combination with cisplatin ([3]; patient LCSC2, both drugs combined): enhanced
- apoptosis, combination with cisplatin ([3]; patient LCSC4, carfilzomib and cisplatin combined): did not have an additive effect
- organoid size ([3]; patient LCSC4, cisplatin 5 μM alone, carfilzomib 2.5 μM alone): decreased the size of the organoid
- induction of apoptosis (caspase activity) compared to cisplatin alone ([3]; patient LCSC4 organoids, 2.5 μM, by 72 hours): 5 fold
- increase in apoptosis (caspase activity) ([3]; second patient (LCSC2) organoids): ~50 fold
- inhibitory effect in cell proliferation [4]: greatest inhibitory effect in cell proliferation
